From patent US20200339691A1, “PROTEINACEOUS MOLECULES AND USES THEREFOR” (priority 2018, published 2020)
Where a SMILES comes first, the peptide text is derived from it. [ ]: non-standard residue; d: D form. The star is where a group is joined. Myristoyl = CCCCCCCCCCCCCC(=O)*; Orn = NCCC[C@H](N)C(=O)O

Tests used:
[1] = test system: CD44^hiCD24^lo CSCs in MDA-MB-231 cells; assay: FACS analysis of CD44^hiCD24^lo cancer stem cells in MDA-MB-231 cells treated with P1 analogues; format: cell-based, human; settings: 50 μM peptide, 48 hours; for CD44^hiCD24^lo CSCs (%) / COI, Live Single CD44^hiCD24^lo CSCs (Cell Count): n = 1; for Average Inhibition of CSCs (%) / CD44^hiCD24^lo CSCs (%) Repeat 1 / CD44^hiCD24^lo CSCs (%) Repeat 2 / CD44^hiCD24^lo CSCs (%) Repeat 3: n = 3
Description: Analogues of P1 (Table 6) were designed and synthesized in accordance with the procedure of Example 5. The ability of these analogues to inhibit cancer stem cells was determined using FACS analysis on MDA-MB-231 cells, which constitutively contain approximately 90% CD44^hiCD24^lo cancer stem cells, treated with the peptides.
(§1) Non-adherent cells were removed during the washing steps.

[2] = test system: MDA-MB-231 cells; format: cell-based, human; settings: 50 μM peptide, 48 hours, n = 1;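 as to COI, Live Single Cells (Cell Count): live means Hoechst-negative events among single cells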
From the text: as §1

SMILES | Inhibition of CSCs (%) Repeat 1 [1] [%] | Inhibition of CSCs (%) Repeat 2 [1] [%] | Inhibition of CSCs (%) Repeat 3 [1] [%] | CD44^hiCD24^lo CSCs (%) [1] [%] | COI, Live Single CD44^hiCD24^lo CSCs (Cell Count) [1] | Average Inhibition of CSCs (%) [1] [%] | CD44^hiCD24^lo CSCs (%) Repeat 1 [1] [%] | CD44^hiCD24^lo CSCs (%) Repeat 2 [1] [%] | CD44^hiCD24^lo CSCs (%) Repeat 3 [1] [%] | COI (Cell Count) [2] | COI, Live Single Cells (Cell Count) [2] | COI, Single (Cell Count) [2] | Total Cell Count [2]
CCCCCCCCCCCCCC(=O)N[C@@H](CC(C)C)C(=O)N[C@H](C(=O)N[C@@H](Cc1ccccc1)C(=O)N[C@H](C(=O)N[C@@H](Cc1ccccc1)C(=O)N[C@@H](CCCNC(=N)N)C(=O)N[C@@H](CC(C)C)C(=O)N[C@@H](CCCNC(=N)N)C(=O)N[C@@H](CCCCN)C(=O)N[C@@H](CCCCN)C(=O)N[C@@H](CCCNC(=N)N)C(=O)N[C@@H](CCSC)C(=O)N[C@@H](CCSC)C(=O)N[C@@H](CC(=O)O)C(=O)N[C@H](C(=O)N[C@@H](CCCCN)C(=O)N[C@@H](CCCCN)C(N)=O)C(C)C)[C@@H](C)CC)[C@@H](C)O [Peptide 2853828, Myristoyl-LTFIFRLRKKRMMDVKK-NH2] (Myristoyl-LTFIFRLRKKRMMDVKK-NH2) | 89.25 | 91.29 | 90.17 | 10.71 | 3 | 90.23 | 9.64 | 7.81 | 8.82 | 182 | 28 | 146 | 3309
CCCCCCCCCCCCCC(=O)N[C@H](C(=O)N[C@@H](Cc1ccccc1)C(=O)N[C@H](C(=O)N[C@@H](Cc1ccccc1)C(=O)N[C@@H](C)C(=O)N[C@@H](CC(C)C)C(=O)N[C@@H](CCCNC(=N)N)C(=O)N[C@@H](CCCCN)C(=O)NCC(=O)N[C@@H](CCCNC(=N)N)C(=O)N[C@@H](CCSC)C(=O)N[C@@H](CCSC)C(=O)N[C@@H](CC(=O)O)C(=O)N[C@H](C(=O)N[C@@H](CCCCN)C(=O)N[C@@H](CCCCN)C(N)=O)C(C)C)[C@@H](C)CC)[C@@H](C)O [Peptide 2815306, Myristoyl-TFIFALRKGRMMDVKK-NH2] (Myristoyl-TFIFALRKGRMMDVKK-NH2) | 67.33 | 69.17 | 70.79 | 27.73 | 66 | 69.09 | 29.28 | 27.66 | 26.21 | 323 | 238 | 280 | 9352
CCCCCCCCCCCCCC(=O)N[C@@H](CC(C)C)C(=O)N[C@H](C(=O)N[C@@H](CCCCN)C(=O)N[C@H](C(=O)N[C@@H](Cc1ccccc1)C(=O)N[C@@H](CCCNC(=N)N)C(=O)N[C@@H](CC(C)C)C(=O)N[C@@H](CCCNC(=N)N)C(=O)N[C@@H](CCCCN)C(=O)NCC(=O)N[C@@H](CCCNC(=N)N)C(=O)N[C@@H](CCSC)C(=O)N[C@@H](CCSC)C(=O)N[C@@H](CC(=O)O)C(=O)N[C@H](C(=O)N[C@@H](CCCCN)C(=O)N[C@@H](CCCCN)C(N)=O)C(C)C)[C@@H](C)CC)[C@@H](C)O [Peptide 2853808, Myristoyl-LTKIFRLRKGRMMDVKK-NH2] (Myristoyl-LTKIFRLRKGRMMDVKK-NH2) | 87.54 | 84.31 | 84.48 | 10.74 | 26 | 85.44 | 11.17 | 14.07 | 13.92 | 323 | 242 | 279 | 1192
CCCCCCCCCCCCCC(=O)N[C@@H](CC(C)C)C(=O)N[C@H](C(=O)N[C@@H](Cc1ccccc1)C(=O)N[C@H](C(=O)N[C@@H](Cc1ccccc1)C(=O)N[C@@H](CCCNC(=N)N)C(=O)N[C@@H](CC(C)C)C(=O)N[C@@H](CCCNC(=N)N)C(=O)N[C@@H](CCCCN)C(=O)NCC(=O)N[C@@H](CCCNC(=N)N)C(=O)N[C@@H](CCSC)C(=O)N[C@@H](CCSC)C(=O)N[C@@H](CC(=O)O)C(=O)N[C@H](C(=O)N[C@@H](Cc1ccc(O)cc1)C(=O)N[C@@H](CCCCN)C(N)=O)C(C)C)[C@@H](C)CC)[C@@H](C)O [Peptide 2853843, Myristoyl-LTFIFRLRKGRMMDVYK-NH2] (Myristoyl-LTFIFRLRKGRMMDVYK-NH2) | 87.60 | 82.06 | 90.31 | 7.50 | 6 | 86.66 | 11.11 | 16.09 | 8.70 | 402 | 80 | 298 | 9152
CCCCCCCCCCCCCC(=O)N[C@@H](CC(C)C)C(=O)N[C@H](C(=O)N[C@@H](Cc1ccccc1)C(=O)N[C@H](C(=O)N[C@@H](Cc1ccc(O)cc1)C(=O)N[C@@H](CCCNC(=N)N)C(=O)N[C@@H](CC(C)C)C(=O)N[C@@H](CCCNC(=N)N)C(=O)N[C@@H](CCCCN)C(=O)NCC(=O)N[C@@H](CCCNC(=N)N)C(=O)N[C@@H](CCSC)C(=O)N[C@@H](CCSC)C(=O)N[C@@H](CC(=O)O)C(=O)N[C@H](C(=O)N[C@@H](CCCCN)C(=O)N[C@@H](CCCCN)C(N)=O)C(C)C)[C@@H](C)CC)[C@@H](C)O [Peptide 2853814, Myristoyl-LTFIYRLRKGRMMDVKK-NH2] (Myristoyl-LTFIYRLRKGRMMDVKK-NH2) | 73.80 | 76.59 | 77.85 | 13.86 | 51 | 76.08 | 23.48 | 21.00 | 19.88 | 437 | 368 | 387 | 999
CCCCCCCCCCCCCC(=O)N[C@@H](CC(C)C)C(=O)N[C@H](C(=O)N[C@@H](Cc1ccccc1)C(=O)N[C@H](C(=O)N[C@@H](Cc1ccccc1)C(=O)N[C@@H](CCCNC(=N)N)C(=O)N[C@@H](CC(C)C)C(=O)N[C@@H](CCCNC(=N)N)C(=O)N[C@@H](CCCNC(C)=O)C(=O)NCC(=O)N[C@@H](CCCNC(=N)N)C(=O)N[C@@H](CCSC)C(=O)N[C@@H](CCSC)C(=O)N[C@@H](CC(=O)O)C(=O)N[C@H](C(=O)N[C@@H](CCCCN)C(=O)N[C@@H](CCCCN)C(N)=O)C(C)C)[C@@H](C)CC)[C@@H](C)O [Peptide 2853826, Myristoyl-LTFIFRLROrn(Ac)GRMMDVKK-NH2] (Myristoyl-LTFIFRLR[Orn](Ac)GRMMDVKK-NH2) | 86.74 | 80.33 | 87.62 | 3.13 | 5 | 84.90 | 11.88 | 17.65 | 11.11 | 554 | 160 | 433 | 3961
CCCCCCCCCCCCCC(=O)N[C@H](C(=O)N[C@@H](Cc1ccccc1)C(=O)N[C@H](C(=O)N[C@@H](Cc1ccccc1)C(=O)N[C@@H](CCCNC(=N)N)C(=O)N[C@@H](CC(C)C)C(=O)N[C@@H](C)C(=O)N[C@@H](CCCCN)C(=O)NCC(=O)N[C@@H](CCCNC(=N)N)C(=O)N[C@@H](CCSC)C(=O)N[C@@H](CCSC)C(=O)N[C@@H](CC(=O)O)C(=O)N[C@H](C(=O)N[C@@H](CCCCN)C(=O)N[C@@H](CCCCN)C(N)=O)C(C)C)[C@@H](C)CC)[C@@H](C)O [Peptide 2815308, Myristoyl-TFIFRLAKGRMMDVKK-NH2] (Myristoyl-TFIFRLAKGRMMDVKK-NH2) | 51.70 | 45.08 | 50.47 | 54.60 | 89 | 49.08 | 43.29 | 49.27 | 44.44 | 340 | 163 | 301 | 9921
CCCCCCCCCCCCCC(=O)N[C@@H](CC(C)C)C(=O)N[C@H](C(=O)N[C@@H](Cc1ccccc1)C(=O)N[C@H](C(=O)N[C@@H](CC(C)C)C(=O)N[C@@H](CCCNC(=N)N)C(=O)N[C@@H](CC(C)C)C(=O)N[C@@H](CCCNC(=N)N)C(=O)N[C@@H](CCCCN)C(=O)NCC(=O)N[C@@H](CCCNC(=N)N)C(=O)N[C@@H](CCSC)C(=O)N[C@@H](CCSC)C(=O)N[C@@H](CC(=O)O)C(=O)N[C@H](C(=O)N[C@@H](CCCCN)C(=O)N[C@@H](CCCCN)C(N)=O)C(C)C)[C@@H](C)CC)[C@@H](C)O [Peptide 2853816, Myristoyl-LTFILRLRKGRMMDVKK-NH2] (Myristoyl-LTFILRLRKGRMMDVKK-NH2) | 69.57 | 68.04 | 65.42 | 12.50 | 12 | 67.68 | 27.27 | 28.67 | 31.03 | 160 | 96 | 130 | 1747
